Results from ChEMBL document CHEMBL1201862, “PubChem BioAssay data set” (2004).
The source made the active and inactive calls.

Assays:
Coagulation factor XII = molecular target: T1, Coagulation factor XII (Homo sapiens, UniProt P00748); assay type: functional;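 further: activated factor XIIa alpha cleaving a fluorogenic AMC peptide substrate; inhibitor potency from loss of enzyme activity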
T1 sequence (P00748 whole entry): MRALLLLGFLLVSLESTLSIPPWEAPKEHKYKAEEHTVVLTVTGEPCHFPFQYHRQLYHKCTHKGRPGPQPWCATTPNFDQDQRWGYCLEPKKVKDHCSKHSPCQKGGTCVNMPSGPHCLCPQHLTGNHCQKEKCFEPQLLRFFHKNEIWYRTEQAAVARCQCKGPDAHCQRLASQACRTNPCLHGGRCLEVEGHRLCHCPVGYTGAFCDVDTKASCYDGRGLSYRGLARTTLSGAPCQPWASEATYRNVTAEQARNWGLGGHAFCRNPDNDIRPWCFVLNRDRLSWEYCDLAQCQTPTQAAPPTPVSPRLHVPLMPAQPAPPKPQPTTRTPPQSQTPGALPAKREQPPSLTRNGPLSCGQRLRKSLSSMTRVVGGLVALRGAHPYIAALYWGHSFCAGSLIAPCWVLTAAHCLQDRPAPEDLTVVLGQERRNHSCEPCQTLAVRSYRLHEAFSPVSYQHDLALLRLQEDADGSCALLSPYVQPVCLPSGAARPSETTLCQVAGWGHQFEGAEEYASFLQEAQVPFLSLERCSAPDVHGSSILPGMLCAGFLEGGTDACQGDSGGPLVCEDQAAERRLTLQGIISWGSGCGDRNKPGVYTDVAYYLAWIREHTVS

Beta-galactosidase = Beta-galactosidase (Escherichia coli, UniProt Q8VNN2); assay: beta-galactosidase enzyme inhibitors and activators, dose response, artefact control for CCR6 antagonist project, biochemical, E. coli enzyme, set 3 (AID 504712); assay type: functional
Chain of Beta-galactosidase (Q8VNN2 whole entry): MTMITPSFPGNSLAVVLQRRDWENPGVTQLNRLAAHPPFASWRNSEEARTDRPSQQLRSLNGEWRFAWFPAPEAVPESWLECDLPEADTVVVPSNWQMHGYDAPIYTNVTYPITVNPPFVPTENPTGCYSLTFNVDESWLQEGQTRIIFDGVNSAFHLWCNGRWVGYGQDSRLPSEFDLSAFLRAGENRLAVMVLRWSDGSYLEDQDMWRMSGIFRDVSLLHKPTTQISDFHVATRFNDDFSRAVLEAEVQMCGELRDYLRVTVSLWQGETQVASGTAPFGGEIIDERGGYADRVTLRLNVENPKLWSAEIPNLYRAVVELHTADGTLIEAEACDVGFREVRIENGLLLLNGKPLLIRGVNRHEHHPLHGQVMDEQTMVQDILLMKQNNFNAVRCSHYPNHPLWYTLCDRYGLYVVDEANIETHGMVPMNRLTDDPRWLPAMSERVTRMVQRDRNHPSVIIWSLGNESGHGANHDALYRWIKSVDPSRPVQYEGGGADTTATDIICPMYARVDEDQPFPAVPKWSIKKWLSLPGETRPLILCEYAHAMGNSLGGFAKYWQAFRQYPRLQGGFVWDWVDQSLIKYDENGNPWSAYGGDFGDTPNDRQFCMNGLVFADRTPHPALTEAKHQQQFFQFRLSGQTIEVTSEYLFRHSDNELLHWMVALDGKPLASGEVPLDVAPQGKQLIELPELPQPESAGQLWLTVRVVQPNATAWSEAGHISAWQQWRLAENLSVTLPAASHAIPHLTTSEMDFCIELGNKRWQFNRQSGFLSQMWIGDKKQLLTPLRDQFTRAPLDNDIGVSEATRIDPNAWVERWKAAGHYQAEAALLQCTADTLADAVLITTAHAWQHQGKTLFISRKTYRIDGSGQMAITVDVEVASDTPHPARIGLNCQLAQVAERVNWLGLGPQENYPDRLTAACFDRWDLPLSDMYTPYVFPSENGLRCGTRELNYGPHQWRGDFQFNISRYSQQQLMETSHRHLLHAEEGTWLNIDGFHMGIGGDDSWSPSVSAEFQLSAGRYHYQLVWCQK

[1] = molecular target: DNA dC->dU-editing enzyme APOBEC-3G (Homo sapiens, UniProt Q9HC16); assay: Dose Response confirmation of small molecule APOBEC3G DNA Deaminase Inhibitors via a fluorescence-based single-stranded DNA deaminase assay. [Related pubchem assays (depositor defined):AID493012, AID493028]; assay type: functional
Chain of DNA dC->dU-editing enzyme APOBEC-3G (Q9HC16 whole entry): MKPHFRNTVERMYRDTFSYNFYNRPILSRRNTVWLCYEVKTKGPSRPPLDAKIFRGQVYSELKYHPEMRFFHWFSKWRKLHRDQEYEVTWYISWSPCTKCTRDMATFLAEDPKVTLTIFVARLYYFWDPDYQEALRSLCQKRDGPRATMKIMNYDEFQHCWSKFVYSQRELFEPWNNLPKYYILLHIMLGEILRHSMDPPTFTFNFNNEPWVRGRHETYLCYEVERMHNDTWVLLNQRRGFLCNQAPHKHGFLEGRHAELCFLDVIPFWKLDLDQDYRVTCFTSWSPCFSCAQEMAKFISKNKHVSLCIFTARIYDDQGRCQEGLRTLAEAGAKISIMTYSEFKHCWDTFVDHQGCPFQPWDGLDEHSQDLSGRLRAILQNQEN

[2] = molecular target: Heat shock protein HSP 90-alpha (Homo sapiens, UniProt P07900); assay type: functional, organism-based
[3] = Luminescence Cell-Based Dose Retest to Confirm Inhibitors of Cancer Stem Cells. [Related pubchem assays (depositor defined):AID2717, AID2721]; assay type: functional; conditions: Homo sapiens
[4] = molecular target: Eukaryotic translation initiation factor 4E (Mus musculus, UniProt P63073); assay: eIF4E–eIF4G protein interaction inhibitors, dose response, biochemical, TR-FRET (AID 855); assay type: functional;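 further: potency for disrupting eIF4E binding to eIF4GI seen as loss of FRET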
Chain of Eukaryotic translation initiation factor 4E (P63073 whole entry): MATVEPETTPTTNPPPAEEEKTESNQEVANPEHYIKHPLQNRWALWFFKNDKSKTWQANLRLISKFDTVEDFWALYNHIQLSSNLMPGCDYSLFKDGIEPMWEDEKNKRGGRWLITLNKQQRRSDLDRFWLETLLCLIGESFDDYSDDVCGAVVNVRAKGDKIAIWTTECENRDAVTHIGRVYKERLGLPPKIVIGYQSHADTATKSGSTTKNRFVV

[5] = A cytotoxicity screen of small molecule inhibitors of the PhoP region in Salmonella typhi identified in the primary screen. [Related pubchem assays: 1850, 1864, 1985 ]; assay type: functional
[6] = inhibitors of Vif binding to APOBEC3G peptide, primary screen, biochemical, TR-FRET, GST-Vif 1-94, biotin-A3G peptide, dose response retest (AID 1117319); assay type: functional;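 further: TR-FRET signal of purified GST-Vif binding a biotinylated A3G peptide; inhibitors lower the FRET signal by blocking Vif and A3G binding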
Troponin, cardiac muscle = Troponin, cardiac muscle (Homo sapiens, UniProt P19429+P45379+P63316); assay: Fluorescence-based biochemical high throughput dose response assay for activators of the calcium sensitivity of cardiac Regulated Thin Filaments (RTF). [Related pubchem assays (depositor defined):AID493008, AID493018, AID504382, AID504383]; assay type: protein-complex assay
[7] = molecular target: T2, Carboxy-terminal domain RNA polymerase II polypeptide A small phosphatase 1 (Homo sapiens, UniProt Q9GZU7); assay: inhibitors of CTDSP1, concentration-response testing, biochemical assay, absorbance-based, actives from ultra-high-throughput screening (AID 540297); assay type: functional
T2 sequence (Q9GZU7 whole entry): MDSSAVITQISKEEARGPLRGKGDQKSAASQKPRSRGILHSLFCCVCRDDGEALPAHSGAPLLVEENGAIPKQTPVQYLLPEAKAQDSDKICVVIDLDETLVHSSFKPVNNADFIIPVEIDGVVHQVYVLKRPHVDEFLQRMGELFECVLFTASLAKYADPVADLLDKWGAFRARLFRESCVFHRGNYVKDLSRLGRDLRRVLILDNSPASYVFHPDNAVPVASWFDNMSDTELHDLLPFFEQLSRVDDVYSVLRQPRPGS

COC(=O)c1ccc(NCC(=O)Nc2cc(C)cc(C)c2)cc1
IC50 (Coagulation factor XII): > 50 µM (inactive)

CCOC(=O)/C=C/C(=O)Nc1cccc([N+](=O)[O-])c1
IC50 (Beta-galactosidase): > 66.6 µM (inactive) | IC50 [1]: 11 µM (active) | AC50 [2]: 3.97 µM (active) | AC50 [3]: 5.87 µM (active)

CN1CCN(C2=CC(=O)OC23CCCCC3)CC1
IC50 [4]: > 64 µM (inactive)

CCn1c(=N)n(CC(=O)c2ccc(OC)cc2)c2ccccc21
EC50 [5]: > 50 µM (active) | IC50 [6]: > 100 µM (active)

CC(C)CNC(=S)NC(=O)c1ccccc1Cl
EC50 (Troponin, cardiac muscle): > 71.4 µM (inactive)

O=[N+]([O-])c1ccc2c(c1)c1ccccc1n2CCO
IC50 (Coagulation factor XII): > 50 µM (inactive)

CCOc1ccccc1NC(=O)N1CCC(NC(=O)c2cccc(C)c2)CC1
IC50 [4]: 58 µM (inactive) | IC50 [7]: 18.8 µM (active)

Cc1ccc(-n2ncc3c(O)ncnc32)c(C)c1
IC50 (Coagulation factor XII): > 50 µM (inactive)

CCN(CC)C(=S)SCC(=O)c1c(C)[nH]c2ccccc12
EC50 (Troponin, cardiac muscle): > 71.5 µM (inactive)

N#Cc1c2n(c3c(=O)n(Cc4ccccc4)cnc13)CCCC2
IC50 (Coagulation factor XII): > 50 µM (inactive)
